Laboratory results taken from patent US9796714B2, “Calcium channel agonists” (University of Pittsburgh—Of the Commonwealth System of …, priority 2013, dated 2017).
Where “and” joins values, the source holds several entries; their conditions need not be identical. Equal entries are not always repeated. Where two headings read alike, the source gives them in different places.

Assays:
[1] = molecular target: T1, P/Q-type channels (Cav 2.1) (Rattus norvegicus, UniProt P54282); experiment: P/Q-type Ca2+ channel agonist activity, whole-cell perforated patch clamp in tsA-201 cells; assay type: cell-based
T1 construct: host or cells: tsA-201
T1 sequence (P54282 whole entry): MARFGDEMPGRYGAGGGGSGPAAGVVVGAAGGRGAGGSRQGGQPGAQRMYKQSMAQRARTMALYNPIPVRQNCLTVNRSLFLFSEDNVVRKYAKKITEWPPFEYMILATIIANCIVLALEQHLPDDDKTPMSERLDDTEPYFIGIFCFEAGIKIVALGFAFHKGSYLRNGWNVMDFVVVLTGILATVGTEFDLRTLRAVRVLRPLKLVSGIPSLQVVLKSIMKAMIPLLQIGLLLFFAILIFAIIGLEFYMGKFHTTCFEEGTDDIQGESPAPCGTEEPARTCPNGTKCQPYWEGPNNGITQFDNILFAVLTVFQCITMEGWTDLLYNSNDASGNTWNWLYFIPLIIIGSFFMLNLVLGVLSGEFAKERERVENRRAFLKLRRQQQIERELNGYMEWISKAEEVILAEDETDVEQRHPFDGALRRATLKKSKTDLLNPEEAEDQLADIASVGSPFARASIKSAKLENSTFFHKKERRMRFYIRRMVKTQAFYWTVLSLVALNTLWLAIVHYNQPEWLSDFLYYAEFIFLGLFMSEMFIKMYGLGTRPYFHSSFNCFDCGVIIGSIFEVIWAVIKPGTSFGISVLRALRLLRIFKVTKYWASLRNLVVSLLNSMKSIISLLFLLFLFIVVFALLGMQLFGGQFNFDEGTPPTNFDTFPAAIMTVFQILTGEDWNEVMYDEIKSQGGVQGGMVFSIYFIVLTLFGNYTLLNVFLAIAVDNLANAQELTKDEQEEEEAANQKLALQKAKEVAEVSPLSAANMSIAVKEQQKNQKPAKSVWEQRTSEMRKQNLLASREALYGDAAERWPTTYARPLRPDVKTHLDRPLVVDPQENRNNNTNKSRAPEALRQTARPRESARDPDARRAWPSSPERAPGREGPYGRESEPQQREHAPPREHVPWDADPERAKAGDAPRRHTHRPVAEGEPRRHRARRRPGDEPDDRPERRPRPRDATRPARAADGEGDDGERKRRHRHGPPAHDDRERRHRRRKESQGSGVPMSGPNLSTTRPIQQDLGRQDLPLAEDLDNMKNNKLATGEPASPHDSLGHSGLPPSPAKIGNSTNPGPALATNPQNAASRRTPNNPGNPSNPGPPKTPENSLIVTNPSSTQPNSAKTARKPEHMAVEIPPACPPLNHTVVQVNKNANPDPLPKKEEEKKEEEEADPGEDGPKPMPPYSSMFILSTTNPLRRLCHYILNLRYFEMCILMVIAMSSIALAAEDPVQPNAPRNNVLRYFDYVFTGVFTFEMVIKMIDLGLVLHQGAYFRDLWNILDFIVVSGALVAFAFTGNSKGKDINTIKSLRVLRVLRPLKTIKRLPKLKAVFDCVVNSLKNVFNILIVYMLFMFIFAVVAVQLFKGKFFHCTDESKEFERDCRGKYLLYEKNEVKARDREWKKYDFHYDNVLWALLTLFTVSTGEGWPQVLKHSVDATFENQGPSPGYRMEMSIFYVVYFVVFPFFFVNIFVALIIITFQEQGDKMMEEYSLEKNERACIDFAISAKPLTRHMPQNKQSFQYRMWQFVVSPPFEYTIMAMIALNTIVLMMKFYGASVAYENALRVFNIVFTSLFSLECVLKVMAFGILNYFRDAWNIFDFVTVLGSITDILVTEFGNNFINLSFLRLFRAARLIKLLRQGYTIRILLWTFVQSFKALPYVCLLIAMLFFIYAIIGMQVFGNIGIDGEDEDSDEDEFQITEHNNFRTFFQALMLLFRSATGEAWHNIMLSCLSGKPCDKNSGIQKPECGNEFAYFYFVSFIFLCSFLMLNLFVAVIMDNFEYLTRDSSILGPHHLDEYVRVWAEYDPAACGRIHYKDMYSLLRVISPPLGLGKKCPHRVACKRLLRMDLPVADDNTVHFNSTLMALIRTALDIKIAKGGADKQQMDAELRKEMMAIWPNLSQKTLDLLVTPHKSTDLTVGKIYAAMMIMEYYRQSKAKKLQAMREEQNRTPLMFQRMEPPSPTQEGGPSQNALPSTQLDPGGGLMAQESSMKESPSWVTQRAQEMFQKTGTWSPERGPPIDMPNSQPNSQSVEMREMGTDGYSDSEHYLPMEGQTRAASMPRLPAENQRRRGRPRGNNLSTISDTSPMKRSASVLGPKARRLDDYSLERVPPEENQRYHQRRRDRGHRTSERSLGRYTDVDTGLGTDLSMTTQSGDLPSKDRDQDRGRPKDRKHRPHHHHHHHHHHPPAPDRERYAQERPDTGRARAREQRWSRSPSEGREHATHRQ
Protocol: (§1) tsA201 cells expressing calcium channels. […] For subsequent evaluation of effects on N-, P/Q-, or L-type channels, tsA-201 cells were transiently transfected with Cav2.2, Cav2.1, or Cav1.3, in combination with Cavβ3 and […] (Addgene, Cambridge Mass.) using FuGENE 6 (Life Technologies, Grand Island, N.Y.). All cells were maintained in DMEM supplemented with 10% fetal bovine serum. For the stable cell line expressing N-type channels, 25 μg/mL zeocin, 5 μg/mL blasticidin, and 25 μg/mL hygromycin were added as selection agents.
(§2) Whole-cell patch clamp recordings of calcium current. […] Briefly, the pipette solution consisted of […] Cs2SO4, 60 mM CsCl, 1 mM MgCl2, 10 mM 4-(2-hydroxyethyl)-1-piperazineethanesulfonic acid (HEPES) at pH 7.4. […] Patch pipettes were fabricated from borosilicate glass and pulled to a resistance of about 1 MΩ. Before each experiment, a stock solution consisting of 3 mg amphotericin-B dissolved into 50 μL anhydrous DMSO was made. […] Capacitive currents and passive membrane responses to voltage commands were subtracted from the data. Currents were amplified by an Axopatch 200B amplifier, filtered at 5 KHz, and digitized at 10 KHz for subsequent analysis using pClamp software (Axon Instruments/Molecular Devices; Sunnyvale, Calif.). […] To measure effects on calcium channel tail currents, the tail current integral was measured before and after application of a derivative, with the integral of each trace being normalized to its peak. All experiments were carried out at room temperature (22° C.). […] All other salts and chemicals were obtained from Sigma-Aldrich chemical company (St. Louis, Mo.).
Capacitive currents and passive membrane responses to voltage commands were subtracted from the data. […] All experiments were carried out at room temperature (22° C.).

[2] = molecular target: T2, N-type Ca^2+ channel (Cav2.2) (Rattus norvegicus, UniProt Q02294); experiment: N-type Ca2+ channel agonist activity, whole-cell perforated patch clamp of tail currents in tsA201 cells; assay type: cell-based
T2 construct: expressed in transfected cells; later also transient transfection
T2 sequence (Q02294 whole entry): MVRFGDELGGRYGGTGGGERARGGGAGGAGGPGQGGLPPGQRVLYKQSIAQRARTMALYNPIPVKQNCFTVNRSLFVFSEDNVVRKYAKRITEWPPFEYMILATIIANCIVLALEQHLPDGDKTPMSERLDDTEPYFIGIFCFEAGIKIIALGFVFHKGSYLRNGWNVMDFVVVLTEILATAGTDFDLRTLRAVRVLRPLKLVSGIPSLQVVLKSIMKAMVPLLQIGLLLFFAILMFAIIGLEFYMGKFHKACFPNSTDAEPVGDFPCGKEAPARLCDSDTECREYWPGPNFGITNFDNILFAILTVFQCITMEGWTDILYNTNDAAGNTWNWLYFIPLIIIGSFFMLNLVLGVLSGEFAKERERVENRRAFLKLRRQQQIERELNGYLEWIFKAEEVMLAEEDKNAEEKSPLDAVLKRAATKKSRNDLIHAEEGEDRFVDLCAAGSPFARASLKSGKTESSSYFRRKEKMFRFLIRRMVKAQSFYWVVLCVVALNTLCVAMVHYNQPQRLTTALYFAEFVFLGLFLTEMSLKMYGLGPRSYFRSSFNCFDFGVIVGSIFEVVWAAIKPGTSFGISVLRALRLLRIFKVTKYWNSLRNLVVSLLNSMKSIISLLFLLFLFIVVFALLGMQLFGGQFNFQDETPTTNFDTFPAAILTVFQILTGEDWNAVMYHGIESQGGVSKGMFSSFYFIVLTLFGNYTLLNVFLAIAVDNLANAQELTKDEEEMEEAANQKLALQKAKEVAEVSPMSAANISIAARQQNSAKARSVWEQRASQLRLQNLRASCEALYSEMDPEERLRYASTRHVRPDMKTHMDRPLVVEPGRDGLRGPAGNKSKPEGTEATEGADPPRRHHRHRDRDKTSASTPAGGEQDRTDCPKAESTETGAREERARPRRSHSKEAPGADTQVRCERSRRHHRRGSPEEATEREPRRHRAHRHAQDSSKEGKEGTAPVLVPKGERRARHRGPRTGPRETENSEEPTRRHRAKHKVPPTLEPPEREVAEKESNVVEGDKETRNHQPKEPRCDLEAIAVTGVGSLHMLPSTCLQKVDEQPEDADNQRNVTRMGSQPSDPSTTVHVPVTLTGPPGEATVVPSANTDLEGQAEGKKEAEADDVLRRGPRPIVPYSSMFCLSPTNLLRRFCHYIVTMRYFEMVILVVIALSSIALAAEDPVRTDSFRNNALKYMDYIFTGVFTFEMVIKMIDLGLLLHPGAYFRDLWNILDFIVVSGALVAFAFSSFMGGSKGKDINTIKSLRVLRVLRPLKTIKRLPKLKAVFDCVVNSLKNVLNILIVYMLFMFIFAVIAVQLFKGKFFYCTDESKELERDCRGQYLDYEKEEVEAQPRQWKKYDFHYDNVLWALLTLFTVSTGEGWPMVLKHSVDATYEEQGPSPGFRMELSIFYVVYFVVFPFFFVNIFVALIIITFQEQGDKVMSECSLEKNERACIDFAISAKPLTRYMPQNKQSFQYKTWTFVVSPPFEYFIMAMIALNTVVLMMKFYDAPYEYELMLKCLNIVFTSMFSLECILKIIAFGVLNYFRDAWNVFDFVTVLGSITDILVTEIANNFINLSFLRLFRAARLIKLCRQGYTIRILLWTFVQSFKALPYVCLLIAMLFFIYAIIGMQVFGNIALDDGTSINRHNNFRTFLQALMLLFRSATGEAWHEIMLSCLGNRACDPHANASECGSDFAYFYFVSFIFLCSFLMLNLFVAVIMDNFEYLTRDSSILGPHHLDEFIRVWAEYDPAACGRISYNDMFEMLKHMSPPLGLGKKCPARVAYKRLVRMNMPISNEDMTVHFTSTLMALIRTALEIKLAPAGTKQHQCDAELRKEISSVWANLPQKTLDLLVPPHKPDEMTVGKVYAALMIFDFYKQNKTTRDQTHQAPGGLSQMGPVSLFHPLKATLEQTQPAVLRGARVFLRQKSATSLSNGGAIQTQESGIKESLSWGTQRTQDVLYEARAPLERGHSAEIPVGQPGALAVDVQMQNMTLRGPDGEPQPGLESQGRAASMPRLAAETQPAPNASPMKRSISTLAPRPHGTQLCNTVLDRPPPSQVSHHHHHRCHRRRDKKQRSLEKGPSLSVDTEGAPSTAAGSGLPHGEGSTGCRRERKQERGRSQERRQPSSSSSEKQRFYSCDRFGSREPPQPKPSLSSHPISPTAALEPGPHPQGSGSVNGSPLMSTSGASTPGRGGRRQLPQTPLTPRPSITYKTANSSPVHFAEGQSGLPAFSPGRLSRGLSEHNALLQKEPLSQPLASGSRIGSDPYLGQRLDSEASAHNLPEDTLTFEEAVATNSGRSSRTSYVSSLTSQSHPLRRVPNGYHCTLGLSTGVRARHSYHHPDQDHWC
Protocol: as §1, §2
Statistical Analysis. Statistical analysis was performed using either GraphPad Prism 5 (GraphPad Software, Inc.) or Origin 7 (OriginLab) software. For the dose-response analyses on Ca^2+ current, each concentration of the four different compounds was tested in 3-6 cells. […] All EC50 and IC50 values and their respective errors were determined by performing 100 iterations of a logistic function curve fit. Data are presented as mean±s.e.m. unless otherwise noted.

Structure (SMILES): CCCn1cnc2c(NCc3ccc(C)s3)nc(N[C@H](CC)CO)nc21 [Compound 13x, (2R)-2-[(6-{[(5-Methylthiophen-2-yl)methyl]amino}-9-propyl-9H-purin-2-yl)amino]butan-1-ol]
- increase of the tail current integral compared to control ([1]; P/Q-type channels): ~33 fold
- EC50 ([1]; b265, read-out: agonist effects on P/Q-type calcium channels EC50): 9.9 µM
- EC50 ([1]; calcium channel agonist, Cav 2.1, read-out: P/Q-type EC50/IC50 affinities): 8.8 µM and 8.81 µM
- EC50 ([1]; read-out: 95% confidence interval for a fit (EC50) to P/Q channels data): 6.7 to 14.5 µM
- higher affinity for the calcium channel than (R)-roscovitine ([2]; FIG. 4C dose response curve): 6 fold
- increase in efficacy as an agonist for N- and P/Q-type Ca^2+ channels vs (R)-roscovitine ([2]; N- and P/Q-type): ~4 fold
- increase in potency as an agonist for N- and P/Q-type Ca^2+ channels vs (R)-roscovitine ([2]; N- and P/Q-type): 3-4 fold
- agonist effect on the Ca^2+ channel tail currents (in words) ([2]; N-type): strong agonist effect
- maximal fold increase in the tail current integral relative to control ([2]; N-type channels): ~32 fold
- EC50 ([2]; Table 3, calcium channel agonist, read-out: N-type EC50/IC50 affinities): 7.21 ± 0.86 µM
- EC50 ([2]; read-out: 95% confidence interval for the fit (EC50) to N-type channels): 4.6 to 9.8 µM
- EC50 ([2]; whole cell perforated patch clamp, deactivation (tail) currents from N-type channels, read-out: N-Type Ca^2+ Channel Activity EC50 +/− SEM): 7.2 µM and 7.21 µM
